Bounds are passed on as bounds.

This is an account of results in ChEMBL document CHEMBL4321836, “Discovery of BAY-298 and BAY-899: Tetrahydro-1,6-naphthyridine-Based, Potent, and Selective Antagonists of the Luteinizing Hormone Receptor Which Reduce Sex Hormone Levels in Vivo” (J Med Chem, 2019).

For series [1], the target named is T1, Lutropin-choriogonadotropic hormone receptor (Homo sapiens, UniProt P22888). The series is described as follows: Agonist activity at human luteinizing hormone receptor incubated for 60 mins by cell based TR-FRET assay. (In general: In TR-FRET formats the signal depends on donor and acceptor labels being close together.)
T1 sequence (P22888 whole entry): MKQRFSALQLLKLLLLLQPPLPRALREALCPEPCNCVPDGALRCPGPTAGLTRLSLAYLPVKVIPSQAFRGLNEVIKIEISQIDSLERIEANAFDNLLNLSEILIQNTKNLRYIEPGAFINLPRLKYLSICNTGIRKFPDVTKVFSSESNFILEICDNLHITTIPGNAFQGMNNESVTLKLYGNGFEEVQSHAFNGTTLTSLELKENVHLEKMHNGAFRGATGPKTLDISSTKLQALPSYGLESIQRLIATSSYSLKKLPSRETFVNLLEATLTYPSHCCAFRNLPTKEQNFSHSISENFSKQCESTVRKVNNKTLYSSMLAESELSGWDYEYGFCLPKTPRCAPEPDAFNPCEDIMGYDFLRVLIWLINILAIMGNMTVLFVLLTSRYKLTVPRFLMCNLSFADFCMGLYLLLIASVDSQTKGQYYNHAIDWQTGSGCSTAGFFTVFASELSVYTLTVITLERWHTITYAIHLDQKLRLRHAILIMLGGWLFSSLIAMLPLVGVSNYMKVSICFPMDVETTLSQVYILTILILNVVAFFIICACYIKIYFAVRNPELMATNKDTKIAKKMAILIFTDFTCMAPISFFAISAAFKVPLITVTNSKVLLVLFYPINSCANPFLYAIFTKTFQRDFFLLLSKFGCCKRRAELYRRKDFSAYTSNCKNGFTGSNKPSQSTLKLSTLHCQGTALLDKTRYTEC
The subject of series [2] is Rattus norvegicus. The series is described as follows: Downregulation of human luteinizing hormone-induced COX-2 mRNA expression in cetrorelix-treated iv dosed female rat after 2 hrs by Taqman probe based RT-PCR analysis. The series is classed as functional, organism-based. Background: In qPCR the cycle at which signal appears reflects the starting amount.
In series [3] the test system is Rattus norvegicus. Nature of the series: Downregulation of human luteinizing hormone-induced RUNX1 mRNA expression in cetrorelix-treated iv dosed female rat after 2 hrs by Taqman probe based RT-PCR analysis. The series is classed as functional, organism-based.
Series [4] has as its target Lutropin-choriogonadotropic hormone receptor (Rattus norvegicus, UniProt P16235). Nature of the series: Antagonist activity at rat luteinizing hormone receptor expressed in rat ovary granulosa GLHR15 cell suspension assessed as reduction in agonist-induced cAMP production preincubated for 30 mins followed by agonist solution addition after 30 mins by cell based TR-FRET assay. The series is classed as functional. Background: Changes in cAMP serve as a functional read-out for many G protein-coupled receptors.

Series [5] is described as follows: Lipophilicity, logD of the compound at pH 7.5 by reversed-phase HPLC. The series is classed as physicochemical. Conditions: buffer.
Series [6] deals with Luteinizing hormone/choriogondaotropin receptor (Macaca fascicularis, UniProt F5A8F7). Nature of the series: Antagonist activity at cynomolgus monkey luteinizing hormone receptor expressed in HEK293 cells assessed as reduction in agonist-induced cAMP production preincubated for 30 mins followed by agonist solution addition and measured after 30 mins by cell based TR-FRET assay.
Chain of Luteinizing hormone/choriogondaotropin receptor (F5A8F7 whole entry): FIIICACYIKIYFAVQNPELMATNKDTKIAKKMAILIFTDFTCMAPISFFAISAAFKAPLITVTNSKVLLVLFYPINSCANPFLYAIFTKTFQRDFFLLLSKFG

Series [7] can be described thus: Protein binding in human plasma assessed as unbound fraction. The series is classed as ADME, cell-free.
Series [8] can be described thus: Efflux ratio of apparent permeability from basolateral to apical over apical to basolateral side in human Caco2 cells at 2 uM after 2 hrs by LC-MS/MS analysis. The series is classed as ADME, cell-based. The settings on record: Caco-2.
The target of series [9] is Cytochrome P450 2C8 (Homo sapiens, UniProt P10632). The series is described as follows: Inhibition of CYP2C8 in human liver microsomes using amodiaquine as substrate by LC-MS/MS analysis. The series is classed as ADME.
Chain of Cytochrome P450 2C8 (P10632 whole entry): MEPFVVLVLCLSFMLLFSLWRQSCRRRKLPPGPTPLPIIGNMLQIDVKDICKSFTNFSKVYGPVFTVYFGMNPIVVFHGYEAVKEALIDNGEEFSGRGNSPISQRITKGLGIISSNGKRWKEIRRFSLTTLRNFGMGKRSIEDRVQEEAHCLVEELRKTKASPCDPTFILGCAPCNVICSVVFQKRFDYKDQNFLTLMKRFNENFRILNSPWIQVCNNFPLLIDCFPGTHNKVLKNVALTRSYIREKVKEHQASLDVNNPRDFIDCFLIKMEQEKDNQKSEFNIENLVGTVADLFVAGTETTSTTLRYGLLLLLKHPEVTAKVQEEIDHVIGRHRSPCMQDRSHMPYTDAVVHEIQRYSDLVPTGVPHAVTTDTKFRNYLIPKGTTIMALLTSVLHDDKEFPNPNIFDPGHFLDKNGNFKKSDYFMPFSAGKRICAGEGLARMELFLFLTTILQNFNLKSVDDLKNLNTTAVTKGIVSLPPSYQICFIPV
Series [10] is described as follows: Half life in Wistar rat at 0.5 mg/kg, iv after 2 to 72 hrs by LC-MS/MS analysis. The series is classed as ADME, organism-based. The settings on record: in vivo.
Series [11] can be described thus: Dose normalized AUC in Wistar rat at 2 mg/kg, po after 8 to 72 hrs by LC-MS/MS analysis. Conditions: in vivo. The series is classed as ADME, organism-based.
Series [12] can be described thus: Dose normalized Cmax in Wistar rat at 2 mg/kg, po after 8 to 72 hrs by LC-MS/MS analysis. The series is classed as ADME, organism-based. The settings on record: in vivo.
The target in series [13] is T2, Alpha-2A adrenergic receptor (Homo sapiens) (UniProt P08913).
T2 sequence (whole entry): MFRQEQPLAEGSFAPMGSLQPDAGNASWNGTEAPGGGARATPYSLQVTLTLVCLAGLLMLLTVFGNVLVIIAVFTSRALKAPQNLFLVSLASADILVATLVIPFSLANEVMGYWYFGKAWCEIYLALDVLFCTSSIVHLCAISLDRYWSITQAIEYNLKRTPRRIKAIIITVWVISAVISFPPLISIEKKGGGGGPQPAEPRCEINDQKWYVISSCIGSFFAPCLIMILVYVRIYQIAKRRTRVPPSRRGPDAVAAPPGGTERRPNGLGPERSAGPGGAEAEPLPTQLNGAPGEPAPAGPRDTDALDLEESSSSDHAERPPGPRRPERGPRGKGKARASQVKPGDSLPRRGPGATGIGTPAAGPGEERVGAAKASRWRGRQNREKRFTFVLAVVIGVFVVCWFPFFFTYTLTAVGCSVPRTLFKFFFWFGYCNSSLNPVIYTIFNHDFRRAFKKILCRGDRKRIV
The series is described as follows: Antagonist activity at human alpha2A adrenergic receptor expressed in Chem-1 cells at 10 uM by fluorimetric method relative to control. The series is classed as cell-based. More on the design: scale not given: the % may be the effect or the level left.

Series [14] deals with Beta-2 adrenergic receptor (Homo sapiens) (UniProt P07550). Nature of the series: Agonist activity at human beta2 adrenergic receptor expressed in CHO-K1 cells at 10 uM after 30 mins HTRF assay relative to control. The series is classed as cell-based.
Chain of Beta-2 adrenergic receptor (Homo sapiens) (P07550 whole entry, looked up): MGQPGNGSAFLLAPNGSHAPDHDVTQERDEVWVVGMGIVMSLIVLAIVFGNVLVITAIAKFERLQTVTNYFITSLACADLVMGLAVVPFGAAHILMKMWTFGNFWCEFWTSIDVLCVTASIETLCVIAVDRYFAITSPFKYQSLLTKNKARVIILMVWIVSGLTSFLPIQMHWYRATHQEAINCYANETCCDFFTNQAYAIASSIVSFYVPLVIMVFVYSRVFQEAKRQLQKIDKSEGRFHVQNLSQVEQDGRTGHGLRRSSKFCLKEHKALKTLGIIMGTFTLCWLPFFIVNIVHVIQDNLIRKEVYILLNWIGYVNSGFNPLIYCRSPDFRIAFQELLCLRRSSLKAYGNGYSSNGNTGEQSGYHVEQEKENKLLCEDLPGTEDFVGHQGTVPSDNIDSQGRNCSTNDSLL
The target is the same in series [15]. The series is described as follows: Antagonist activity at human beta2 adrenergic receptor expressed in CHO-K1 cells at 10 uM after 30 mins HTRF assay relative to control. The series is classed as cell-based. Also on record: scale not given: the % may be the effect or the level left.
Series [16] deals with Cannabinoid receptor 1 (Homo sapiens) (UniProt P21554). Nature of the series: Agonist activity at human CB1 receptor expressed in CHO-K1 cells at 10 uM after 20 mins HTRF assay relative to control. The series is classed as cell-based.
Chain of Cannabinoid receptor 1 (Homo sapiens) (P21554 whole entry): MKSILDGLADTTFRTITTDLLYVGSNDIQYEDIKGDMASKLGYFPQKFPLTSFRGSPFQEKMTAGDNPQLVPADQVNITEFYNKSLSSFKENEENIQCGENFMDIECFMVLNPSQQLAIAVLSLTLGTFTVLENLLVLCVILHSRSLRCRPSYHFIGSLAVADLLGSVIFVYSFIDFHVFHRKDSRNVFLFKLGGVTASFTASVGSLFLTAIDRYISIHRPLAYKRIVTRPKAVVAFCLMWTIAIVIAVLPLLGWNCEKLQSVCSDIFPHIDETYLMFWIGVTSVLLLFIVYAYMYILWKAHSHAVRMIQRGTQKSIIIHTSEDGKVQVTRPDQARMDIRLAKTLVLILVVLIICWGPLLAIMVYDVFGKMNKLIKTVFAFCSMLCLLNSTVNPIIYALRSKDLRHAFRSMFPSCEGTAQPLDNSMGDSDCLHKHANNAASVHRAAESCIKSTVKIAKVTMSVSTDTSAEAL
In series [17] the target is D(1A) dopamine receptor (Homo sapiens) (UniProt P21728). Nature of the series: Antagonist activity at human D1 receptor expressed in CHO-K1 cells at 10 uM after 30 mins HTRF assay relative to control. The series is classed as cell-based. More on the design: scale not given: the % may be the effect or the level left.
Chain of D(1A) dopamine receptor (Homo sapiens) (P21728 whole entry): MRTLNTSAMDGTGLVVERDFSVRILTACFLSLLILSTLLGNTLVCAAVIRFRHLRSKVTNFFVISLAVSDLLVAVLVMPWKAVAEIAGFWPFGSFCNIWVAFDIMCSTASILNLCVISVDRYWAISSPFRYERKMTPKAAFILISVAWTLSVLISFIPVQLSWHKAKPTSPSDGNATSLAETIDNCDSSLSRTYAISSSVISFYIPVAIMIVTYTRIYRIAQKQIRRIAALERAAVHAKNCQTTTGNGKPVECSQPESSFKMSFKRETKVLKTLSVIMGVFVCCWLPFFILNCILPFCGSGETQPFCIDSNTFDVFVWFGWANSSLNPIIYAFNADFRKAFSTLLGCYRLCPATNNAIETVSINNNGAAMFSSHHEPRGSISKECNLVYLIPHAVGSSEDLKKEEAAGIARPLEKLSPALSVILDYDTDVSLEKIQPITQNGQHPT
Series [18] addresses Histamine H2 receptor (Homo sapiens) (UniProt P25021). The series is described as follows: Agonist activity at human histamine H2 receptor expressed in CHO-K1 cells at 10 uM after 30 mins by HTRF assay relative to control. The series is classed as cell-based.
For series [19], the target named is Kappa-type opioid receptor (Homo sapiens) (UniProt P41145). Nature of the series: Antagonist activity at human kappa opioid receptor at 10 uM by Spectrophotometric method relative to control. Also on record: scale not given: the % may be the effect or the level left.
Chain of Kappa-type opioid receptor (Homo sapiens) (P41145 whole entry): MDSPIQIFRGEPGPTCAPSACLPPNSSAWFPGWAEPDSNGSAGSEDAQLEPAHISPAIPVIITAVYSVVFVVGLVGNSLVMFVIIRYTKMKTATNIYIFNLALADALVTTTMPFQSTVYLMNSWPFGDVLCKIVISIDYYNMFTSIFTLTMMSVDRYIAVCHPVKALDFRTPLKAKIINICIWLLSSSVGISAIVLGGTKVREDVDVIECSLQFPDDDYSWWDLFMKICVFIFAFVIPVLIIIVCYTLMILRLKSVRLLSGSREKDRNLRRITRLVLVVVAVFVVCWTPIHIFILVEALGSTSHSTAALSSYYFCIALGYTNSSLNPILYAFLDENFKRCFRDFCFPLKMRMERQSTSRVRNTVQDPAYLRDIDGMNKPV
Series [20] deals with 5-hydroxytryptamine receptor 6 (Homo sapiens) (UniProt P50406). The series is described as follows: Agonist activity at human 5-HT6 receptor expressed in CHO-K1 cells at 10 uM after 30 mins by HTRF assay relative to control. The series is classed as cell-based.
Chain of 5-hydroxytryptamine receptor 6 (Homo sapiens) (P50406 whole entry): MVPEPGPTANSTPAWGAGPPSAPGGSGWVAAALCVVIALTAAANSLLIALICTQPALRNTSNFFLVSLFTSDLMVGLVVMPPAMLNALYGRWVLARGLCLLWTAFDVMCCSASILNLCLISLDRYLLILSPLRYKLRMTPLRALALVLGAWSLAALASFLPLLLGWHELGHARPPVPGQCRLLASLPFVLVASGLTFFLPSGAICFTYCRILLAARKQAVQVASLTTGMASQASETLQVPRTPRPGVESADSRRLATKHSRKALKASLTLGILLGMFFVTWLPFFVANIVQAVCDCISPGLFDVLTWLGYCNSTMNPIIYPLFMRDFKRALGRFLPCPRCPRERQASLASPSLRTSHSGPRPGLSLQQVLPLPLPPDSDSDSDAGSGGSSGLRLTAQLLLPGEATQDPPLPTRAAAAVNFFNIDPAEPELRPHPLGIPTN
In series [21] the target is T1, Lutropin-choriogonadotropic hormone receptor. The series is described as follows: Negative allosteric modulation of human luteinizing hormone receptor assessed as reduction in glycoprotein human luteinizing hormone-induced agonist activity preincubated for 20 mins followed by 4 times EC80 of agonist addition and measured after 60 mins by cell based TR-FRET assay relative to control.

Series [22] shares this target. Nature of the series: Negative allosteric modulation of human luteinizing hormone receptor assessed as Emax for Org 43553-induced agonist activity at 0.84 nM to 17 uM preincubated for 20 mins followed by 16 times EC80 of agonist addition and measured after 60 mins by cell based TR-FRET assay relative to control. Conditions: at 0.00084 to 17 µM.
The target is the same in series [23]. The series is described as follows: Negative allosteric modulation of human luteinizing hormone receptor assessed as Emax for Org 43553-induced agonist activity at 0.84 nM to 17 uM preincubated for 20 mins followed by 100 times EC80 of agonist addition and measured after 60 mins by cell based TR-FRET assay relative to control.
Series [24] has the same target. Nature of the series: Negative allosteric modulation of human luteinizing hormone receptor assessed as reduction in Org 43553-induced agonist activity preincubated for 20 mins followed by 1 times EC80 of agonist addition and measured after 60 mins by cell based TR-FRET assay relative to control.
Series [25] shares this target. The series is described as follows: Negative allosteric modulation of human luteinizing hormone receptor assessed as reduction in Org 43553-induced agonist activity preincubated for 20 mins followed by 10 times EC80 of agonist addition and measured after 60 mins by cell based TR-FRET assay relative to control.
Series [26] deals with Rattus norvegicus. Nature of the series: Downregulation of 0.1 ug human luteinizing hormone-induced testosterone expression in plasma of cetrorelix-treated male rat at 14 mg/kg, iv after 2 hrs by radioimmunoassay method (reference value: 33.4 nM). The series is classed as functional.
The subject of series [27] is Rattus norvegicus. The series is described as follows: Downregulation of human luteinizing hormone-induced testosterone expression in plasma of cetrorelix-treated iv dosed male rat at after 2 hrs by radioimmunoassay method. The series is classed as functional, organism-based.
The subject of series [28] is Rattus norvegicus. The series is described as follows: Downregulation of estradiol level in proestrus staged-female rat serum at 4.5 mg/kg, po administered once daily for 8 days and measured by radioimmunoassay method (reference value: 125 pmol/L). The series is classed as functional.
The test system of series [29] is Rattus norvegicus. Nature of the series: Downregulation of estradiol level in po dosed proestrus staged-female rat serum administered once daily for 8 days and measured by radioimmunoassay method. The series is classed as functional, organism-based.

Chain of Histamine H2 receptor (Homo sapiens) (P25021 whole entry): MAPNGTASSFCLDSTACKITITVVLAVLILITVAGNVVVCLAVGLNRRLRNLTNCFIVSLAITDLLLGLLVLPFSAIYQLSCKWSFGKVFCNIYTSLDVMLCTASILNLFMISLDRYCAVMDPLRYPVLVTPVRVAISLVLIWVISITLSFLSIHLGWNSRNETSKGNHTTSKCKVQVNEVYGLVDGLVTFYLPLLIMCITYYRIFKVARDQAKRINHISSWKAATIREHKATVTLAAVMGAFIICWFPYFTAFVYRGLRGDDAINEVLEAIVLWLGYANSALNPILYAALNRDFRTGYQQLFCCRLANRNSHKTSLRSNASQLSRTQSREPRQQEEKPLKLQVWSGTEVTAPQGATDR
Chain of Lutropin-choriogonadotropic hormone receptor (Rattus norvegicus, UniProt P16235) (P16235 whole entry): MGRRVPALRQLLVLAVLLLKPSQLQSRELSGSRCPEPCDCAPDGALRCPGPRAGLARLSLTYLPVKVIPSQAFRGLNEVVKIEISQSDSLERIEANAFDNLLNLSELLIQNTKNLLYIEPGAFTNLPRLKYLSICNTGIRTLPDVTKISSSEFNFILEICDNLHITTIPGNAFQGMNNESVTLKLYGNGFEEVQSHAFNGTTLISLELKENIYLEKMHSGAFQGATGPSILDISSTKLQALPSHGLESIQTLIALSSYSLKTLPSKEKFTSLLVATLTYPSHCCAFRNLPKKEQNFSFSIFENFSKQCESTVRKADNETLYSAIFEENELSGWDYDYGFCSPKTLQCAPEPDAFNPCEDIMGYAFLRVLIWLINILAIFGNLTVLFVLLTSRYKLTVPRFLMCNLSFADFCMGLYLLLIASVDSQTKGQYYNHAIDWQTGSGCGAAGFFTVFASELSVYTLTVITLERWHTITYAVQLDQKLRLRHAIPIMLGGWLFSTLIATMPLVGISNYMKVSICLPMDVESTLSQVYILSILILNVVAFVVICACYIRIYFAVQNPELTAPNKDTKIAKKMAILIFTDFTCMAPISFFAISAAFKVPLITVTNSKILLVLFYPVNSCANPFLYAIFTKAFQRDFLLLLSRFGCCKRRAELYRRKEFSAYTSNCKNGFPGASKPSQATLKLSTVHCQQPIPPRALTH

A word on the EC50: it is the concentration that produces a half-maximal response. For orientation: IC50 means the concentration that inhibits the measured activity by half. Usually chromatographic logD stands for a lipophilicity value derived from retention on a column. In general, fraction unbound refers to free concentration divided by total concentration. In general, efflux ratio refers to the permeability from basolateral to apical divided by that in the opposite direction, in the common usage. The half-life is how long it takes for the measured level to halve. The Emax is the greatest response seen or fitted, relative to the assay's reference. In series [1], `O=C(Nc1ccc(Oc2ccc(F)cc2)cc1)N1CCc2ncccc2[C@@H]1c1ccc(Cl)cc1` gave an EC50 of more than 16000 nM. Also, the Activity entry was “Dose-dependent effect” in series [2]; “Dose-dependent effect” in series [3]; less than 70% in series [13]; less than 70% in series [14]; less than 70% in series [15]; less than 70% in series [16]. Further, the Activity was less than 70% in series [17]; less than 70% in series [18]; less than 70% in [19]; less than 70% in series [20]; 2.5 nM in series [26]; “Dose-dependent effect” in series [27]. Further, the Activity is 118 pmol/L in series [28] and “Dose-dependent effect” in [29]. Moreover, the IC50 in [4] came to 23 nM; in series [6], 78 nM; in series [9], 700 nM; in series [21] it was 200 nM; in series [24], 650 nM; in series [25] it was 1500 nM. Further, in [5], the chromatographic logD is 4.7. The fraction unbound in series [7] came to 0.002. In [8], the efflux ratio at 2 h, 2 µM is 1.3. Also, the half-life in [10] is 11 h. The same compound registered an AUC/dose in series [11] of 7.8 kg·h/L. The same compound yielded a Cmax/dose in series [12] of 0.24 kg/L. The maximum response (Emax) in series [22] turned out to be 102%; in series [23], 93%.
Take `O=C(Nc1cnc(Oc2ccc(F)cc2)nc1)N1CCc2ncccc2[C@@H]1c1ccc(F)cc1` [BAY-899]: the values for the IC50 in series [4] and in series [9] were 46 nM and 3100 nM, respectively. In [5], this compound returned a chromatographic logD of 2.8. Further, the fraction unbound in [7] stood at 0.017. Also, in [8], the efflux ratio at 2 h, 2 µM stood at 1.1. Also, the half-life in series [10] was 31 h. The AUC/dose in series [11] is 2.7 kg·h/L. In series [12], this compound gave a Cmax/dose of 0.066 kg/L. Moreover, the Activity in series [13], in [14], in [15], in [16], in series [17] and in series [18] was less than 70% each time. For the same compound, the Activity in series [19] and in [20] was less than 70% each time.
